# From publication PMC12631003 (2025)
# How the values were obtained:
# [1] = tested on: miRNA21 (RNA, miRNA) GUUGACUGUUGAAUCUCAUGGCAAC; assay: microscale thermophoresis; conditions: Na+ (185 mM NaCl, 8 mM Na2HPO4), no Mg2+; 1 mM EDTA, 0.05% Tween-20; 5 nM RNA; compounds up to 100-300 µM
# [2] = tested on: pre-let-7a-1 (RNA, miRNA) UUAGGGUCACACCCACCACUGGGAGAUAA; assay: microscale thermophoresis; conditions: Na+ (185 mM NaCl, 8 mM Na2HPO4), no Mg2+; 1 mM EDTA, 0.05% Tween-20; 5 nM RNA
binding [1],K d [2],SMILES
no,29.4 µM,CCc1nc(C(N)=O)c(Nc2ccc(N3CCC(N4CCN(C)CC4)CC3)c(OC)c2)nc1NC1CCOCC1
no,5.0 µM,CN1CCN(c2ccc(C(=O)Nc3n[nH]c4ccc(Cc5cc(F)cc(F)c5)cc34)c(NC3CCOCC3)c2)CC1
–,217 µM,Cn1cnc2c(F)c(Nc3ccc(Br)cc3Cl)c(C(=O)NOCCO)cc21
–,82.4 µM,N#CC[C@H](C1CCCC1)n1cc(-c2ncnc3[nH]ccc23)cn1
